Assays:
[1] = biological target: Casein kinase I isoform epsilon (Homo sapiens) (UniProt P49674); settings: Compound concentration 1000.0 nM
[2] = biological target: Serine/threonine-protein kinase MRCK alpha (Homo sapiens) (UniProt Q5VT25); settings: Compound concentration 1000.0 nM
[3] = biological target: Serine/threonine-protein kinase mTOR (Homo sapiens) (UniProt P42345); settings: Compound concentration 1000.0 nM
[4] = organism: Rattus norvegicus; settings: Compound concentration 10.0 uM
[5] = biological target: Membrane-associated tyrosine- and threonine-specific cdc2-inhibitory kinase (Homo sapiens) (UniProt Q99640); settings: Compound concentration 1000.0 nM
[6] = biological target: Muscarinic acetylcholine receptor M3 (Homo sapiens) (UniProt P20309); settings: Compound concentration 10.0 uM
[7] = biological target: Mast/stem cell growth factor receptor Kit (Homo sapiens) (UniProt P10721); settings: Compound concentration 1000.0 nM
[8] = biological target: Kappa-type opioid receptor (Homo sapiens) (UniProt P41145); settings: Compound concentration 10.0 uM
[9] = tested on: Receptor-type tyrosine-protein kinase FLT3 (Homo sapiens), P36888 [K663Q]; settings: Compound concentration 1000.0 nM
[10] = biological target: Phosphatidylinositol 4-phosphate 5-kinase type-1 alpha (Homo sapiens) (UniProt Q99755); settings: Compound concentration 1000.0 nM
[11] = biological target: Testis-specific serine/threonine-protein kinase 1 (Homo sapiens) (UniProt Q9BXA7); settings: Compound concentration 1000.0 nM
[12] = biological target: Serine/threonine-protein kinase 33 (Homo sapiens) (UniProt Q9BYT3); settings: Compound concentration 1000.0 nM
[13] = biological target: Serine/threonine-protein kinase Nek3 (Homo sapiens) (UniProt P51956); settings: Compound concentration 1000.0 nM
[14] = biological target: Serine/threonine-protein kinase MRCK beta (Homo sapiens) (UniProt Q9Y5S2); settings: Compound concentration 1000.0 nM
[15] = biological target: Epithelial discoidin domain-containing receptor 1 (Homo sapiens) (UniProt Q08345); settings: Compound concentration 1000.0 nM
[16] = biological target: Myotonin-protein kinase (Homo sapiens) (UniProt Q09013); settings: Compound concentration 1000.0 nM
[17] = biological target: Vascular endothelial growth factor receptor 3 (Homo sapiens) (UniProt P35916); settings: Compound concentration 1000.0 nM
[18] = biological target: Cyclin-dependent kinase 19 (Homo sapiens) (UniProt Q9BWU1); settings: Compound concentration 1000.0 nM
[19] = biological target: Atypical kinase COQ8A, mitochondrial (Homo sapiens) (UniProt Q8NI60); settings: Compound concentration 1000.0 nM
[20] = tested on: Epidermal growth factor receptor (Homo sapiens), P00533 [L858R,T790M]; settings: Compound concentration 1000.0 nM
[21] = biological target: Maternal embryonic leucine zipper kinase (Homo sapiens) (UniProt Q14680); settings: Compound concentration 1000.0 nM
[22] = tested on: ALK tyrosine kinase receptor (Homo sapiens), Q9UM73 [C1156Y]; settings: Compound concentration 1000.0 nM
[23] = biological target: Casein kinase I isoform alpha-like (Homo sapiens) (UniProt Q8N752); settings: Compound concentration 1000.0 nM
[24] = tested on: Hepatocyte growth factor receptor (Homo sapiens), P08581 [Y1235D]; settings: Compound concentration 1000.0 nM
[25] = biological target: Serine/threonine-protein kinase MRCK gamma (Homo sapiens) (UniProt Q6DT37); settings: Compound concentration 1000.0 nM
[26] = biological target: Ribosomal protein S6 kinase alpha-3 (Homo sapiens) (UniProt P51812); settings: Compound concentration 1000.0 nM
[27] = biological target: Casein kinase I isoform gamma-2 (Homo sapiens) (UniProt P78368); settings: Compound concentration 1000.0 nM
[28] = biological target: Phosphatidylinositol 4-phosphate 5-kinase type-1 gamma (Homo sapiens) (UniProt O60331); settings: Compound concentration 1000.0 nM
[29] = biological target: Leucine-rich repeat serine/threonine-protein kinase 2 (Homo sapiens) (UniProt Q5S007); settings: Compound concentration 1000.0 nM
[30] = biological target: Serine/threonine-protein kinase/endoribonuclease IRE1 (Homo sapiens) (UniProt O75460); settings: Compound concentration 1000.0 nM
[31] = biological target: Serine/threonine-protein kinase 38 (Homo sapiens) (UniProt Q15208); settings: Compound concentration 1000.0 nM
[32] = biological target: Glycogen synthase kinase-3 alpha (Homo sapiens) (UniProt P49840); settings: Compound concentration 1000.0 nM
[33] = tested on: Mast/stem cell growth factor receptor Kit (Homo sapiens), P10721 [V559D]; settings: Compound concentration 1000.0 nM
[34] = biological target: Mitogen-activated protein kinase kinase kinase 15 (Homo sapiens) (UniProt Q6ZN16); settings: Compound concentration 1000.0 nM
[35] = biological target: Histamine H4 receptor (Homo sapiens) (UniProt Q9H3N8); settings: Compound concentration 10.0 uM
[36] = biological target: D(1A) dopamine receptor (Homo sapiens) (UniProt P21728); settings: Compound concentration 10.0 uM
[37] = biological target: Insulin receptor-related protein (Homo sapiens) (UniProt P14616); settings: Compound concentration 1000.0 nM
[38] = biological target: Proto-oncogene tyrosine-protein kinase Src (Homo sapiens) (UniProt P12931); settings: Compound concentration 1000.0 nM
[39] = biological target: NUAK family SNF1-like kinase 2 (Homo sapiens) (UniProt Q9H093); settings: Compound concentration 1000.0 nM
[40] = biological target: Cyclin-dependent kinase 17 (Homo sapiens) (UniProt Q00537); settings: Compound concentration 1000.0 nM
[41] = biological target: G protein-coupled receptor kinase 4 (Homo sapiens) (UniProt P32298); settings: Compound concentration 1000.0 nM
[42] = biological target: LIM domain kinase 1 (Homo sapiens) (UniProt P53667); settings: Compound concentration 1000.0 nM
[43] = biological target: Cyclin-dependent kinase-like 3 (Homo sapiens) (UniProt Q8IVW4); settings: Compound concentration 1000.0 nM
[44] = biological target: Angiopoietin-1 receptor (Homo sapiens) (UniProt Q02763); settings: Compound concentration 1000.0 nM
[45] = biological target: Dual specificity protein kinase CLK4 (Homo sapiens) (UniProt Q9HAZ1); settings: Compound concentration 1000.0 nM
[46] = biological target: Serine/threonine-protein kinase RIO1 (Homo sapiens) (UniProt Q9BRS2); settings: Compound concentration 1000.0 nM
Sequence of Serine/threonine-protein kinase RIO1 (Homo sapiens) (Q9BRS2 whole entry): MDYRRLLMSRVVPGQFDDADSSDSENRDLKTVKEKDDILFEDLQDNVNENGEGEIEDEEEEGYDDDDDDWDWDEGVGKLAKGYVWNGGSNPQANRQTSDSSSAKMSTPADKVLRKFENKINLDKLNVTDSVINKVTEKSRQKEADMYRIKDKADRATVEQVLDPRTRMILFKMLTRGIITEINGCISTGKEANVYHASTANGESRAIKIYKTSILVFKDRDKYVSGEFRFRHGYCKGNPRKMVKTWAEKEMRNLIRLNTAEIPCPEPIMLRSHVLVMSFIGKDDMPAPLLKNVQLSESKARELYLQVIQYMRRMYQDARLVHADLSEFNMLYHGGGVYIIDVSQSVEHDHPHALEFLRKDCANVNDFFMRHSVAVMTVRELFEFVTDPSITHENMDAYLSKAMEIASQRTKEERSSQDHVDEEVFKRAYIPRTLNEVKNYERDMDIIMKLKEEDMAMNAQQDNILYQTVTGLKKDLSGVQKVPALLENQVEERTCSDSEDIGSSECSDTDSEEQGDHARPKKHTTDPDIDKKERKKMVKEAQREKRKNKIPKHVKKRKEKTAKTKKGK

Sequence of Angiopoietin-1 receptor (Homo sapiens) (Q02763 whole entry): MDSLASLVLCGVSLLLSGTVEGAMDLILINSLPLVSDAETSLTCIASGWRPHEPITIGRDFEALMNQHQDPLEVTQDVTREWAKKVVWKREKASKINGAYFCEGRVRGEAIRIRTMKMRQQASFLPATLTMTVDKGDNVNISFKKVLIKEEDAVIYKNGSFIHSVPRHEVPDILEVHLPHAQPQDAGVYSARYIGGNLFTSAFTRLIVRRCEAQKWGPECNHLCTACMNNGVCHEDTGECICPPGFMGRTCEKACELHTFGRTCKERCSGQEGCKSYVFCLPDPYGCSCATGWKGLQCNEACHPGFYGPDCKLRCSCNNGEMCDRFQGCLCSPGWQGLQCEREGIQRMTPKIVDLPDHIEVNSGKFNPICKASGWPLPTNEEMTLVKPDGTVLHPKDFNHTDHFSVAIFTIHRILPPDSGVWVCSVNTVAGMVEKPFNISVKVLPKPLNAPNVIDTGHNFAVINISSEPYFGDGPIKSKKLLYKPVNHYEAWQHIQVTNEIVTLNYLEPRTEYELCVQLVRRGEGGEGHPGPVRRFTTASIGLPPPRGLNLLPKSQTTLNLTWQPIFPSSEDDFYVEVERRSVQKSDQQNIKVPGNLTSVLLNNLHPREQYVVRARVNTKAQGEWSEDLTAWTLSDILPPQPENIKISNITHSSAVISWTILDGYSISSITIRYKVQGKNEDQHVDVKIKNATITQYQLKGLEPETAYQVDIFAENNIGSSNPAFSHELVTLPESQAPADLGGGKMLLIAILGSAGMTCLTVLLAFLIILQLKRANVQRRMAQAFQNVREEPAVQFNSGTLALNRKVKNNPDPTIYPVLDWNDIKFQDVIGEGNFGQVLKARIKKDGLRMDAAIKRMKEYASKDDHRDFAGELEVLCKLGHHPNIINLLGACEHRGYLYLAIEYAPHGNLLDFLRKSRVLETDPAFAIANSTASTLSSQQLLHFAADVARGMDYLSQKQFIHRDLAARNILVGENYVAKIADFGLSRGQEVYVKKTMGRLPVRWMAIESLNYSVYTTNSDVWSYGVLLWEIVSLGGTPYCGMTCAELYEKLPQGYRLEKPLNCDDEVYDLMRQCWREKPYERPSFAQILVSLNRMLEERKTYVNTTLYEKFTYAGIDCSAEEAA
Sequence of Phosphatidylinositol 4-phosphate 5-kinase type-1 gamma (Homo sapiens) (O60331 whole entry): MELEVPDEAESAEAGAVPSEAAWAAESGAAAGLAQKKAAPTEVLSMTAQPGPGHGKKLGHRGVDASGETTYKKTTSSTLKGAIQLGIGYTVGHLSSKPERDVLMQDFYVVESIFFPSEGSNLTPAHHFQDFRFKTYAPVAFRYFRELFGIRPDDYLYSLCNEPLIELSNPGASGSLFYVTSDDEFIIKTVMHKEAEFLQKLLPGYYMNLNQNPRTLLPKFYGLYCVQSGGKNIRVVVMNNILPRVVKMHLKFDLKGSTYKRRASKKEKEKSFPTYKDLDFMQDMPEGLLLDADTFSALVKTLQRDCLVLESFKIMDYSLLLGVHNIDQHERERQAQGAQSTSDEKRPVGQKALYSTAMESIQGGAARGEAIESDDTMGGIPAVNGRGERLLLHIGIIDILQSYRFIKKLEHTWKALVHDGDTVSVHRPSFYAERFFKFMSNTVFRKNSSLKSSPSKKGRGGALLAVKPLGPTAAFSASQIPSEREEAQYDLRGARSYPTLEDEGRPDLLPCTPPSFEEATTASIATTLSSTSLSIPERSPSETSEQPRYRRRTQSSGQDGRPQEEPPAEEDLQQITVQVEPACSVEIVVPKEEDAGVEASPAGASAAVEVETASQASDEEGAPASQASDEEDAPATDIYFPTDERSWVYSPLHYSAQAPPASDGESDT
Sequence of Serine/threonine-protein kinase/endoribonuclease IRE1 (Homo sapiens) (O75460 19-977 limits assumed): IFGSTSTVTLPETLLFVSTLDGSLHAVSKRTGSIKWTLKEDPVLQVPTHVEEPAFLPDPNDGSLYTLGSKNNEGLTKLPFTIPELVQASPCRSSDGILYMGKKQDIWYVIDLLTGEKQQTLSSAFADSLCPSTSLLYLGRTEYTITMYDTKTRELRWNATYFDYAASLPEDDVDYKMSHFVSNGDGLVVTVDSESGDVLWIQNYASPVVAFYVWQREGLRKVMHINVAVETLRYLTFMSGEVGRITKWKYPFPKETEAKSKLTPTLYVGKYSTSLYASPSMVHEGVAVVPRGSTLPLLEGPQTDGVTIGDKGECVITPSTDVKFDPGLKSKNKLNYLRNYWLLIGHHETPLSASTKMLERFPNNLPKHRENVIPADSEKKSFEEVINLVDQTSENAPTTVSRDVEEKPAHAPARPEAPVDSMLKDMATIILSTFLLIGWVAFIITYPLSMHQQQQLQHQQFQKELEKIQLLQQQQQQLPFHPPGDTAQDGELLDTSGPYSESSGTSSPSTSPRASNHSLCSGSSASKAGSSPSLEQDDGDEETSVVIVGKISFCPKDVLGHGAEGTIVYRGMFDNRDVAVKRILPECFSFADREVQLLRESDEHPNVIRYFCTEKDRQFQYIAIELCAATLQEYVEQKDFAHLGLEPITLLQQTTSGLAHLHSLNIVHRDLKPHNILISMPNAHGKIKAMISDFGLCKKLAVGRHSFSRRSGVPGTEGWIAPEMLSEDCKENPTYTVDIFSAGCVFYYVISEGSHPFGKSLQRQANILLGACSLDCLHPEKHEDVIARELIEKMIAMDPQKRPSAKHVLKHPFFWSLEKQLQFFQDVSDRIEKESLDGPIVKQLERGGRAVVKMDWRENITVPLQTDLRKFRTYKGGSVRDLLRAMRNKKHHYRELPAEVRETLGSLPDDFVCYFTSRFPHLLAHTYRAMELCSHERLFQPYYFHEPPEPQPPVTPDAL
Sequence of Casein kinase I isoform epsilon (Homo sapiens) (P49674 whole entry, looked up, canonical isoform): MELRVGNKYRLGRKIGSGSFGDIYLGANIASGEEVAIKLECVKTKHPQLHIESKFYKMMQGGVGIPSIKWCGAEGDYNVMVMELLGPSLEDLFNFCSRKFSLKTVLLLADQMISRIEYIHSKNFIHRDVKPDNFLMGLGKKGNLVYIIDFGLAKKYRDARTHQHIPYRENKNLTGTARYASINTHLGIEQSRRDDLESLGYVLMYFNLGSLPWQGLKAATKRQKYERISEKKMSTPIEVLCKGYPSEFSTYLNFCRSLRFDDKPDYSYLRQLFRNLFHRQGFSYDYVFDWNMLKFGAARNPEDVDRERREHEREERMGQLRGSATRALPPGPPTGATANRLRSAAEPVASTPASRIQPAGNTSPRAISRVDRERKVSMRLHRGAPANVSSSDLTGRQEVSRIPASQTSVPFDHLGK
Sequence of Testis-specific serine/threonine-protein kinase 1 (Homo sapiens) (Q9BXA7 whole entry): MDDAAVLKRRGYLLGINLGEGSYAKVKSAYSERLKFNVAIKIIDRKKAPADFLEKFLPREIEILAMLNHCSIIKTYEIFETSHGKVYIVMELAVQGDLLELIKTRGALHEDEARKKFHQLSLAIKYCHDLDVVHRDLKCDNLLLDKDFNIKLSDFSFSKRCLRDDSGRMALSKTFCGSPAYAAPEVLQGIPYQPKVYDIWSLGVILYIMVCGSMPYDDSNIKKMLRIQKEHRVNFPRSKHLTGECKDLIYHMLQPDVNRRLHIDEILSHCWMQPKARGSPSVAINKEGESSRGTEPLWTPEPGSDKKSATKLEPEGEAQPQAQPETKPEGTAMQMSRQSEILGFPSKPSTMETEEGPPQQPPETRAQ
Sequence of Epithelial discoidin domain-containing receptor 1 (Homo sapiens) (Q08345 whole entry, the tested form may be a part): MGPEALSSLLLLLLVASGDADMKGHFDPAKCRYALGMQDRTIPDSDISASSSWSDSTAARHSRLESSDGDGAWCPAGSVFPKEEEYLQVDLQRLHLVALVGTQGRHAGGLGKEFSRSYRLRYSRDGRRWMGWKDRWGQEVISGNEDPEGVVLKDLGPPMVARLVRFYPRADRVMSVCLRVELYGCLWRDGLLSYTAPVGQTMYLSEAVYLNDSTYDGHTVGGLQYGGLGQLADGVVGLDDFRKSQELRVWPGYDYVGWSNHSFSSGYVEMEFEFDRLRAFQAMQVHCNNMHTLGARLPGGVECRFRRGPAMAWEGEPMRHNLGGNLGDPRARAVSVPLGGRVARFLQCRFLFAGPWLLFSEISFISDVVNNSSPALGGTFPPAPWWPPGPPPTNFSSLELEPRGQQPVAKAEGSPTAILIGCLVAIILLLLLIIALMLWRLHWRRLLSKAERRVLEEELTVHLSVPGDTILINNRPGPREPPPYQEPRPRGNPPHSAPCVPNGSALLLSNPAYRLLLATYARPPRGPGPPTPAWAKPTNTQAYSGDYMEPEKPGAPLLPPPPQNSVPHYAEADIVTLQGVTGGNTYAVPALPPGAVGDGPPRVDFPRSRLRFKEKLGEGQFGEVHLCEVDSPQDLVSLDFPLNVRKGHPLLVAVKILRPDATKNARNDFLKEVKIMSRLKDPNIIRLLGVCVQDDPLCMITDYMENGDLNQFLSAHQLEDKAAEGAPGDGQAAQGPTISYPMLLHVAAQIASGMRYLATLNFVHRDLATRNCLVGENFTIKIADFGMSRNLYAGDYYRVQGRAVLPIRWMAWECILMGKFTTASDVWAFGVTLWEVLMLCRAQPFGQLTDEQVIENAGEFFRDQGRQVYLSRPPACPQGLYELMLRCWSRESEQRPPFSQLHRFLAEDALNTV

## CO[C@@H](C)c1c(Nc2ccc([C@H](N(C)C(=O)C3CCS(=O)(=O)CC3)C(F)(F)F)cc2)cnc2cc(Cl)nn12 [NVS-MALT1]
[1]
  residual activity: 66%
[2]
  residual activity: 86%
[3]
  residual activity: 100%
[4]
  inhibition: 11.6%
[5]
  residual activity: 85%
[6]
  inhibition: -8.44%
[7]
  residual activity: 98%
[8]
  inhibition: 31.9%
[9]
  residual activity: 100%
[10]
  residual activity: 100%
[11]
  residual activity: 100%
[12]
  residual activity: 51%
[13]
  residual activity: 40%
[14]
  residual activity: 81%
[15]
  residual activity: 99%
[16]
  residual activity: 84%
[17]
  residual activity: 89%
[18]
  residual activity: 73%
[19]
  residual activity: 100%
[20]
  residual activity: 80%
[21]
  residual activity: 59%
[22]
  residual activity: 89%
[23]
  residual activity: 65%
[24]
  residual activity: 100%
[25]
  residual activity: 87%
[26]
  residual activity: 100%
[27]
  residual activity: 93%
[28]
  residual activity: 100%
[29]
  residual activity: 100%
[30]
  residual activity: 91%
[31]
  residual activity: 83%
[32]
  residual activity: 86%
[33]
  residual activity: 100%
[34]
  residual activity: 100%
[35]
  inhibition: 3.84%
[36]
  inhibition: 23.7%
[37]
  residual activity: 94%
[38]
  residual activity: 99%
[39]
  residual activity: 100%
[40]
  residual activity: 75%
[41]
  residual activity: 85%
[42]
  residual activity: 100%
[43]
  residual activity: 73%
[44]
  residual activity: 84%
[45]
  residual activity: 94%
[46]
  residual activity: 85%

## CO[C@@H](C)c1c(Nc2ccc([C@@H](N(C)C(=O)C3CCS(=O)(=O)CC3)C(F)(F)F)cc2)cnc2cc(Cl)nn12 [NVS-MALT1-C]
[1]
  residual activity: 59%
[2]
  residual activity: 94%
[3]
  residual activity: 100%
[4]
  inhibition: 5.14%
[5]
  residual activity: 99%
[6]
  inhibition: -2.58%
[7]
  residual activity: 85%
[8]
  inhibition: 29.4%
[9]
  residual activity: 94%
[10]
  residual activity: 89%
[11]
  residual activity: 100%
[12]
  residual activity: 51%
[13]
  residual activity: 61%
[14]
  residual activity: 89%
[15]
  residual activity: 100%
[16]
  residual activity: 91%
[17]
  residual activity: 84%
[18]
  residual activity: 81%
[19]
  residual activity: 100%
[20]
  residual activity: 72%
[21]
  residual activity: 52%
[22]
  residual activity: 79%
[23]
  residual activity: 84%
[24]
  residual activity: 85%
[25]
  residual activity: 86%
[26]
  residual activity: 100%
[27]
  residual activity: 84%
[28]
  residual activity: 100%
[29]
  residual activity: 100%
[30]
  residual activity: 100%
[31]
  residual activity: 88%
[32]
  residual activity: 94%
[33]
  residual activity: 100%
[34]
  residual activity: 100%
[35]
  inhibition: -8.46%
[36]
  inhibition: 17.9%
[37]
  residual activity: 89%
[38]
  residual activity: 98%
[39]
  residual activity: 100%
[40]
  residual activity: 100%
[41]
  residual activity: 100%
[42]
  residual activity: 92%
[43]
  residual activity: 73%
[44]
  residual activity: 90%
[45]
  residual activity: 92%
[46]
  residual activity: 91%

Source: ChEMBL document CHEMBL4507320, “Data for DCP probe NVS-MALT1” (2021)
